Measurements as given in patent US9956168B2, “Extended release drug-delivery contact lenses and methods of making” (Mercy Medical Research Institute, priority 2013, dated 2018).

System: MKP-1
Assay: In vitro effective dose study (Western blots for MKP-1 on HeLa cells)
Format: cell-based
Settings: HeLa cells incubated with varying concentration; extrapolated

**Q.** Which “in vitro effective dose” value does the source give for `CC(=O)OCC(=O)[C@@]1(O)CC[C@H]2[C@@H]3CCC4=CC(=O)C=C[C@]4(C)[C@H]3[C@@H](O)C[C@@]21C` [Prednisolone-21-acetate] here?
**A.** 5-10 ppm
